Assay results published in patent US11225466B2, “Benzothiadiazepine compounds and their use as bile acid modulators” (Albireo AB, priority 2019, dated 2022).

How the values were obtained:
[1] = target: T1, Human LBAT (Homo sapiens, UniProt Q14973); assay: LBAT (h/m) assay: 3H-taurocholic acid uptake in human LBAT-overexpressing cells; assay type: cell-based; conditions: 0.3 μM 3H-taurocholic acid and 7.5 μM cold taurocholic acid, read-out: hLBAT IC50
T1 sequence (Q14973 1-349): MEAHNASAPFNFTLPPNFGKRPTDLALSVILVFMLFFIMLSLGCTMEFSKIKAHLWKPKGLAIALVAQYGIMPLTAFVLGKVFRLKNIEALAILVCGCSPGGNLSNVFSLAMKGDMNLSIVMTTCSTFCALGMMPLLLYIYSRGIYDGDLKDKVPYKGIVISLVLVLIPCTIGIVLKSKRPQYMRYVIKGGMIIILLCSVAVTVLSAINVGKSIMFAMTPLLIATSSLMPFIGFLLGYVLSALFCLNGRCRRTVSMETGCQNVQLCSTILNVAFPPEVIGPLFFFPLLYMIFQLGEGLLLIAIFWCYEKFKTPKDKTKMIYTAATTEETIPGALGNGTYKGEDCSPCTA
Protocol: LBAT (h/m) Assay Protocol
(§1) 20,000 cells (Human or Mouse LBAT-overexpressing cells) were seeded in 96-wells plate (Corning CLS3809) in 100 μL MEM-alpha medium (Gibco 12571-063) supplemented with 10% FBS (Gibco 10438026) containing Geneticin (Gibco 10131-027) (1 mg/mL) and incubated at 37° C. in 5% CO2 for 24 hours. After incubation, media was decanted from the wells and cells were washed two times with 300 μL of basal MEM-alpha medium (FBS-free). After decanting basal MEM-alpha medium each time, plates were tapped against paper towel to ensure maximum removal of residual media.
For human LBAT, incubation mix was prepared by adding test inhibitor dilutions (3-fold serial dilution in DMSO (Sigma D2650), 10 points) in MEM-alpha (without FBS) containing 0.3 μM 3H-taurocholic acid (ARC ART-1368) and 7.5 μM cold taurocholic acid (Sigma T4009) (maintaining 0.2% final DMSO concentration). […]
100 μL of MicroScint-20 (PerkinElmer 6013621) was added to the wells and kept overnight at room temperature before reading the plates in TopCount NXT™ Microplate Scintillation and Luminescence Counter from PerkinElmer under 3H Test protocol (set at 120 seconds reading time per well, with normal plate orientation). […]

[2] = Bidirectional permeability assay (Caco-2 cells); assay type: in vitro ADME; conditions: human, Caco-2, pH 7.4, 120 minutes at 37° C., FaSSIF buffer; for Papp A→B at 120 min, 10 µM: absorptive direction (A2B); for Papp B→A at 120 min, 10 µM: secretory direction (B2A)
Source text: Bidirectional Permeability Assay (Caco-2 Cells)

[3] = target: T2, Human IBAT (Homo sapiens, UniProt Q12908); assay: IBAT (h/m) assay: 3H-taurocholic acid uptake in human IBAT-overexpressing cells; assay type: cell-based; conditions: 0.25 μM 3H-taurocholic acid and 5 μM cold taurocholic acid, read-out: hIBAT IC50
T2 construct: expressed in transfected cells; kept under Puromycin selection
T2 sequence (Q12908 1-348): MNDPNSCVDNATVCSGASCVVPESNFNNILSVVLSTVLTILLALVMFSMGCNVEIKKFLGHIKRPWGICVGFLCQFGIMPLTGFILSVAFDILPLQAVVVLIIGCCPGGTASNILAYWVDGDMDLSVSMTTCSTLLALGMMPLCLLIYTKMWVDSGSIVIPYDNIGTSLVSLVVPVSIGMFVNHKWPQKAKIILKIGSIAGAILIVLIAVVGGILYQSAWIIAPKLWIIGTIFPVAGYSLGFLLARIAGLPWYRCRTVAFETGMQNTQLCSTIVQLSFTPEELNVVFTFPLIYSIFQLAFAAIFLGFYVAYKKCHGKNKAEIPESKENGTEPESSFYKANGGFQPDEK
Protocol: IBAT (h/m) Assay Protocol
as §1, with “10,000” for “20,000”, “IBAT-overexpressing” for “LBAT-overexpressing”, “200” for “100”, “Puromycin” for “Geneticin”, “A1113803) (10 μg/mL)” for “10131-027) (1 mg/mL)”, “48” for “24”
Test inhibitor dilutions (highest test concentration being 10 μM, 3-fold serial dilution, 10 points) prepared in DMSO (Sigma D2650) were added in incubation mix (maintaining 0.2% final DMSO concentration) containing 0.25 μM 3H-taurocholic acid (ARC ART-1368) and 5 μM of cold taurocholic acid (Sigma T4009). 50 μL of incubation mix containing test inhibitors was then added to the wells (in duplicate) and the plates were incubated for 20 minutes in a CO2 incubator at 37° C. After incubation, the reaction was stopped by keeping the plates on ice water mix for 2-3 minutes and then the incubation mix was aspirated completely from the wells. The wells were washed two times with 250 μL of chilled unlabeled 1 mM taurocholic acid dissolved in HEPES (Gibco 15630080)-buffered (10 mM) HBSS (Gibco 14175079) (pH 7.4). The plates were tapped against a paper towel after every wash to ensure maximum removal of blocking buffer.
100 μL of MicroScint-20 (PerkinElmer 6013621) was added to the wells and kept overnight at room temperature before reading the plates in TopCount NXT™ Microplate Scintillation and Luminescence Counter from PerkinElmer under 3H Test protocol (set at 120 seconds reading time per well).
All test compounds were provided in powder form at room temperature. 10 mM DMSO stocks of the test compounds were prepared, aliquoted and stored at −20° C. From the 10 mM DMSO stock of the compounds, a 3-fold serial dilution in DMSO was prepared to get a total of 10 dilutions of the test compounds. […]

IC50 [1] [nM]	Papp A→B at 120 min, 10 µM [2] [×10⁻⁶ cm/s]	Papp B→A at 120 min, 10 µM [2] [×10⁻⁶ cm/s]	IC50 [3] [nM]	SMILES
3980	2.52	4	5.7	CCCC[C@@]1(CC)CN(c2ccccc2)c2cc(SC)c(OCC(=O)O)cc2S(=O)(=O)N1 (single isomer, unassigned) [Example 2]
5000	–	–	182	CCCC[C@]1(CC)CN(c2ccccc2)c2cc(SC)c(OCC(=O)O)cc2S(=O)(=O)N1 (single isomer, unassigned) [Example 3]
–	1.1	2.9	8.8	CCCCC1(CC)CN(c2ccccc2)c2cc(SC)c(OCC(=O)O)cc2S(=O)(=O)N1 (stereo not drawn) [Example 1, 2-((3-butyl-3-ethyl-7-(methylthio)-1,1-dioxido-5-phenyl-2,3,4,5-tetrahydrobenzo-1,2,5-thiadiazepin-8-yl)oxy)acetic Acid]
